In patent US8916517B2, “Analogs of pituitary adenylate cyclase-activating polypeptide (PACAP) and methods for their use” (The Administrators of the Tulane Educational Fund, priority 2009, dated 2014):
Entries after “also recorded” stand apart in the source; their conditions may differ. Non-standard residues stand in square brackets, D forms with d. No end group written: not given here. Pip = O=C(O)[C@@H]1CCCCN1; Aib = CC(C)(N)C(=O)O

Experiments:
[1] = tested on: rat renal proximal tubule epithelial cells; experiment: Reduction of cisplatin-induced apoptotic cell death of renal proximal tubule epithelial cells (histone-associated DNA fragmentation); type: cell-based; settings: cisplatin 24 hours, comparable concentrations
[2] = tested on: human renal proximal tubule epithelial cells; experiment: Reduction of gentamicin-induced apoptotic cell death of human renal proximal tubule epithelial cells; type: cell-based; settings: gentamicin 24 hours
Procedure: The inhibitory effects of PACAP38 and the novel PACAP analog on apoptotic cell death was assessed by the quantitative determination of cytoplasmic histone-associated DNA-fragmentation (mono- and oligonucleosomes) after exposure to gentamicin for 24 hours. […] Each value represents the mean plus/minus the standard deviation of four determinations. **p<0.01 and *p<0.05 compared to the group treated only with gentamicin.

[3] = tested on: ischemia/reperfusion injury to the kidney; experiment: Serum creatinine after renal ischemia/reperfusion injury in mice; type: in vivo, male C57BL/6 mice; settings: 20 micrograms i.p. 1, 24 and 48 h after start of reperfusion; 45 min renal artery clamping; 72 hours
Procedure: FIG. 6 is a graph showing the effects of PACAP38 and two novel PACAP analogs on serum creatinine levels in mice following ischemia/reperfusion injury to the kidney. The renal artery in male C57BL/6 mice was clamped bilaterally for 45 minutes in all mice except for the sham-operated mice. Twenty micrograms of PACAP38 or one of the PACAP analogs were given intraperitoneally 1 hour after the start of reperfusion and additional doses were given at 24 and 48 hours after the initial dose. The sham-operated group of mice was injected intraperitoneally with PACAP38 on the same schedule as the mice subjected to ischemia/reperfusion. The control group of mice was injected intraperitoneally with the same volume of saline as for the injections of PACAP38 on the same schedule. All of the mice were euthanized 24 hours after the final injection of saline, PACAP38 or one of the novel PACAP analogs. Each value represents the mean plus/minus the standard error of four determinations. **p<0.01 and *p<0.05 compared to the ischemia/reperfusion group treated with saline. I/R, ischemia/reperfusion; sham, sham-operated.

[4] = tested on: human myeloma cell line (MM.1 R); experiment: Proliferation of dexamethasone-resistant myeloma cell line MM.1R (bromodeoxyuridine incorporation); type: cell-based; settings: FIG. 9
Procedure: FIG. 9 is a graph showing the effects PACAP38, [Pip^3,Ala^14,17,Aib^16,28,Lys^34,D-Lys^38] PACAP38(SEQ ID NO: 6) and dexamethasone on the proliferation of light-chain immunoglobulin-secreting human myeloma cell line (MM.1 R) that was derived from a patient who was being treated for multiple myeloma with a dexamethasome-containing regimen. The light-chain immunoglobulin-secreting multiple myeloma cells were cultured in RPMI 1640 medium supplemented with 10% non-inactivated fetal bovine serum and 0.05mM 2-mercaptoethanol. The effects of dexamethasone, PACAP38 and the novel PACAP38 analog on cell proliferation were assessed by determining the incorporation of bromodeoxyuridine into DNA during cell division. Each value represents the mean plus/minus the standard error of four-six determination. The cell lines in FIGS. 8 and 9 were obtained from the same patient at different stages of the treatment (Greenstein et al., Exp Hematol 31 :271-282, 2003).

[5] = tested on: light-chain immunoglobulin-secreting human multiple myeloma cells; experiment: Inhibition of proliferation of light-chain immunoglobulin-secreting human multiple myeloma cells (bromodeoxyuridine incorporation); type: cell-based; settings: inhibition of myeloma cell proliferation
Procedure: FIG. 3 is a table listing the EC50 for the inhibitory effects of PACAP38, PACAP27, VIP, and eight novel PACAP analogs on the proliferation of light-chain immunoglobulin-secreting myeloma cells. The light-chain immunoglobulin-secreting human multiple myeloma cells were cultured in RPMI 1640 medium supplemented with 10% non-inactivated fetal bovine serum and 0.05 mM 2-mercaptoethanol. The effects of PACAP38, PACAP27, VIP, and the eight novel PACAP analogs on myeloma cell proliferation were assessed by determining incorporation of bromodeoxyuridine into DNA during cell division. The number of myeloma cells approximately doubled during the 24-hour incubation period in the absence of treatment with PACAP-like peptides. Five different concentrations, ranging from 10^-13 M to 10^-5 M, were tested for PACAP38, PACAP27, VIP, and each of the eight novel PACAP analogs. The EC50 was calculated from the concentration response curve using the software package Prism (Graph Pad, San Diego, CA). Each value represents the mean of four-six determinations per experiment. The EC50 for PACAP38 is based on the average of four separate experiments, while the EC50 for PACAP27 and [Pip^3,Aib ^16,28,Ala^17,Lys^34,D-LysIPACAP 38 (SEQ ID NO: 4) is based on the average of two separate experiments.
FIG. 4 is a graph showing a representative concentration response curve from a single experiment on the inhibitory effects PACAP38 and six PACAP38 analogs on the proliferation of light-chain immunoglobulin-secreting human myeloma cells. Each value represents the mean plus/minus the standard error of four-six determinations. Note that replacing pipecolic acid in position 3 of the novel analogs with either nipecotic acid or isonipecotic acid results in an analog with more than four orders of magnitude lower inhibitory potency.
The effects of PACAP38, PACAP27, VIP, and PACAP analogs on myeloma cell proliferation were assessed by determining incorporation bromodeoxyuridine into DNA during cell division. […]

Substance | cytoprotective potency compared with PACAP38 [1] | reversal of the rise in serum creatinine caused by ischemia/reperfusion [3] | other results
[Pip^3,Aib^16,28,Ala^17,Lys^34,D-Lys^38]PACAP38 (HS[Pip]GIFTDSYSRYRK[Aib]AAVKKYLAAVL[Aib]KRYKQKVKN[dK]-NH2; N-terminus assumed; SMILES CC[C@H](C)[C@H](NC(=O)CNC(=O)[C@@H]1CCCCN1C(=O)[C@H](CO)NC(=O)[C@@H](N)Cc1c[nH]cn1)C(=O)N[C@@H](Cc1ccccc1)C(=O)N[C@H](C(=O)N[C@@H](CC(=O)O)C(=O)N[C@@H](CO)C(=O)N[C@@H](Cc1ccc(O)cc1)C(=O)N[C@@H](CO)C(=O)N[C@@H](CCCNC(=N)N)C(=O)N[C@@H](Cc1ccc(O)cc1)C(=O)N[C@@H](CCCNC(=N)N)C(=O)N[C@@H](CCCCN)C(=O)NC(C)(C)C(=O)N[C@@H](C)C(=O)N[C@@H](C)C(=O)N[C@H](C(=O)N[C@@H](CCCCN)C(=O)N[C@@H](CCCCN)C(=O)N[C@@H](Cc1ccc(O)cc1)C(=O)N[C@@H](CC(C)C)C(=O)N[C@@H](C)C(=O)N[C@@H](C)C(=O)N[C@H](C(=O)N[C@@H](CC(C)C)C(=O)NC(C)(C)C(=O)N[C@@H](CCCCN)C(=O)N[C@@H](CCCNC(=N)N)C(=O)N[C@@H](Cc1ccc(O)cc1)C(=O)N[C@@H](CCCCN)C(=O)N[C@@H](CCC(N)=O)C(=O)N[C@@H](CCCCN)C(=O)N[C@H](C(=O)N[C@@H](CCCCN)C(=O)N[C@@H](CC(N)=O)C(=O)N[C@H](CCCCN)C(N)=O)C(C)C)C(C)C)C(C)C)[C@@H](C)O) [SEQ ID NO:4] | either as effective or more effective than PACAP38 |  | 
[Pip^3]PACAP38 (HS[Pip]GIFTDSYSRYRKQMAVKKYLAAVLGKRYKQRVKNK-NH2; N-terminus assumed; SMILES CC[C@H](C)[C@H](NC(=O)CNC(=O)[C@@H]1CCCCN1C(=O)[C@H](CO)NC(=O)[C@@H](N)Cc1c[nH]cn1)C(=O)N[C@@H](Cc1ccccc1)C(=O)N[C@H](C(=O)N[C@@H](CC(=O)O)C(=O)N[C@@H](CO)C(=O)N[C@@H](Cc1ccc(O)cc1)C(=O)N[C@@H](CO)C(=O)N[C@@H](CCCNC(=N)N)C(=O)N[C@@H](Cc1ccc(O)cc1)C(=O)N[C@@H](CCCNC(=N)N)C(=O)N[C@@H](CCCCN)C(=O)N[C@@H](CCC(N)=O)C(=O)N[C@@H](CCSC)C(=O)N[C@@H](C)C(=O)N[C@H](C(=O)N[C@@H](CCCCN)C(=O)N[C@@H](CCCCN)C(=O)N[C@@H](Cc1ccc(O)cc1)C(=O)N[C@@H](CC(C)C)C(=O)N[C@@H](C)C(=O)N[C@@H](C)C(=O)N[C@H](C(=O)N[C@@H](CC(C)C)C(=O)NCC(=O)N[C@@H](CCCCN)C(=O)N[C@@H](CCCNC(=N)N)C(=O)N[C@@H](Cc1ccc(O)cc1)C(=O)N[C@@H](CCCCN)C(=O)N[C@@H](CCC(N)=O)C(=O)N[C@@H](CCCNC(=N)N)C(=O)N[C@H](C(=O)N[C@@H](CCCCN)C(=O)N[C@@H](CC(N)=O)C(=O)N[C@@H](CCCCN)C(N)=O)C(C)C)C(C)C)C(C)C)[C@@H](C)O) [SEQ ID NO:12] |  |  | cytoprotective potency, PACAP38 versus [Pip^3]PACAP38 [2]: less potent than PACAP38; reduction in gentamicin-induced apoptotic cell death ([2]; various concentrations): significant dose-dependent reduction; also recorded: dose-dependent inhibition
[Pip^3,Ala^15,17,Aib^16,28,Lys^34,D-Lys^38]PACAP38 (HS[Pip]GIFTDSYSRYRA[Aib]AAVKKYLAAVL[Aib]KRYKQKVKN[dK]-NH2; N-terminus assumed; SMILES CC[C@H](C)[C@H](NC(=O)CNC(=O)[C@@H]1CCCCN1C(=O)[C@H](CO)NC(=O)[C@@H](N)Cc1c[nH]cn1)C(=O)N[C@@H](Cc1ccccc1)C(=O)N[C@H](C(=O)N[C@@H](CC(=O)O)C(=O)N[C@@H](CO)C(=O)N[C@@H](Cc1ccc(O)cc1)C(=O)N[C@@H](CO)C(=O)N[C@@H](CCCNC(=N)N)C(=O)N[C@@H](Cc1ccc(O)cc1)C(=O)N[C@@H](CCCNC(=N)N)C(=O)N[C@@H](C)C(=O)NC(C)(C)C(=O)N[C@@H](C)C(=O)N[C@@H](C)C(=O)N[C@H](C(=O)N[C@@H](CCCCN)C(=O)N[C@@H](CCCCN)C(=O)N[C@@H](Cc1ccc(O)cc1)C(=O)N[C@@H](CC(C)C)C(=O)N[C@@H](C)C(=O)N[C@@H](C)C(=O)N[C@H](C(=O)N[C@@H](CC(C)C)C(=O)NC(C)(C)C(=O)N[C@@H](CCCCN)C(=O)N[C@@H](CCCNC(=N)N)C(=O)N[C@@H](Cc1ccc(O)cc1)C(=O)N[C@@H](CCCCN)C(=O)N[C@@H](CCC(N)=O)C(=O)N[C@@H](CCCCN)C(=O)N[C@H](C(=O)N[C@@H](CCCCN)C(=O)N[C@@H](CC(N)=O)C(=O)N[C@H](CCCCN)C(N)=O)C(C)C)C(C)C)C(C)C)[C@@H](C)O) [SEQ ID NO:5] | either as effective or more effective than PACAP38 | almost completely reversed | 
[Pip^3,Ala^14,17,Aib^16,28,Lys^34,D-Lys^38]PACAP38 (HS[Pip]GIFTDSYSRYAK[Aib]AAVKKYLAAVL[Aib]KRYKQKVKN[dK]-NH2; N-terminus assumed; SMILES CC[C@H](C)[C@H](NC(=O)CNC(=O)[C@@H]1CCCCN1C(=O)[C@H](CO)NC(=O)[C@@H](N)Cc1c[nH]cn1)C(=O)N[C@@H](Cc1ccccc1)C(=O)N[C@H](C(=O)N[C@@H](CC(=O)O)C(=O)N[C@@H](CO)C(=O)N[C@@H](Cc1ccc(O)cc1)C(=O)N[C@@H](CO)C(=O)N[C@@H](CCCNC(=N)N)C(=O)N[C@@H](Cc1ccc(O)cc1)C(=O)N[C@@H](C)C(=O)N[C@@H](CCCCN)C(=O)NC(C)(C)C(=O)N[C@@H](C)C(=O)N[C@@H](C)C(=O)N[C@H](C(=O)N[C@@H](CCCCN)C(=O)N[C@@H](CCCCN)C(=O)N[C@@H](Cc1ccc(O)cc1)C(=O)N[C@@H](CC(C)C)C(=O)N[C@@H](C)C(=O)N[C@@H](C)C(=O)N[C@H](C(=O)N[C@@H](CC(C)C)C(=O)NC(C)(C)C(=O)N[C@@H](CCCCN)C(=O)N[C@@H](CCCNC(=N)N)C(=O)N[C@@H](Cc1ccc(O)cc1)C(=O)N[C@@H](CCCCN)C(=O)N[C@@H](CCC(N)=O)C(=O)N[C@@H](CCCCN)C(=O)N[C@H](C(=O)N[C@@H](CCCCN)C(=O)N[C@@H](CC(N)=O)C(=O)N[C@H](CCCCN)C(N)=O)C(C)C)C(C)C)C(C)C)[C@@H](C)O) [SEQ ID NO:6] | either as effective or more effective than PACAP38 | almost completely reversed | sensitivity of cell proliferation [4]: still sensitive
PACAP27 |  |  | potency compared with PACAP38 or the novel PACAP38 analogs [5]: significantly less potent
